Assay results reported in PMC4801743 (Journal of enzyme inhibition and medicinal chemistry, 2015).
Values belong to the compound of their own block, whether it stands above or below them.

Legend:
PHM [1] = molecular target: T1, PHM (Rattus norvegicus, UniProt P14925); test: Inhibition of the PHM-dependent consumption of O2; type: biochemical
T1 sequence (P14925 36-715 isoform P14925-2 limits assumed): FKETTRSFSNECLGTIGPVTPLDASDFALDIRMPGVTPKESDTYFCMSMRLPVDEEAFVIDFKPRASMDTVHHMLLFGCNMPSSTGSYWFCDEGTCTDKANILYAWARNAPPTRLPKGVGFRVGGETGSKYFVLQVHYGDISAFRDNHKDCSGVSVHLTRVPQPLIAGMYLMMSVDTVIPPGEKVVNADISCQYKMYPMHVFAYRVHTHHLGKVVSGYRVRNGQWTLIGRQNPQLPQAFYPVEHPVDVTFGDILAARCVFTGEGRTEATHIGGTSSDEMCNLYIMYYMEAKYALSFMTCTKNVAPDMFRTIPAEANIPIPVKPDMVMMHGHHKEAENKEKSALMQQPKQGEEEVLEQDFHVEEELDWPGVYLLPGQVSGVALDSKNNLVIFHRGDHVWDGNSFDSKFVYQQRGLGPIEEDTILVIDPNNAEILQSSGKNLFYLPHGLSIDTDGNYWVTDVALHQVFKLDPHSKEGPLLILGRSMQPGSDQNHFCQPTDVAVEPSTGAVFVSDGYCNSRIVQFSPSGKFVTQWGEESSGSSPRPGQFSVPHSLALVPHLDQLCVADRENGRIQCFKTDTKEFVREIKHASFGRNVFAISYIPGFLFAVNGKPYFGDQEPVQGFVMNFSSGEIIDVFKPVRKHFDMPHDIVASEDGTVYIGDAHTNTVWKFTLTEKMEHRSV

P450 = conditions: inactivation of P450; cited from earlier work
PHM [2] = molecular target: T1, PHM; test: PHM inactivation by the dilution method; type: biochemical; conditions: for Inactivation of PHM (qualitative): dilution method, in the presence of ascorbate and O2; for kinact/KI: pH 6, read-out: (kinact/KI)obs
PHM [3] = conditions: cited from earlier work; for Ki: PHM inactivator; for Km: PHM substrate
PHM [4] = molecular target: T1, PHM; test: Tiopronin protection against the cinnamate-mediated inactivation of PHM; type: biochemical; conditions: 60 μM tiopronin, 7.5 mM cinnamate, 2 h
[5] = system: dopamine β-monooxygenase (DβM); conditions: inactivation of DβM; cited from earlier work

Ki (PHM [1]): 200 ± 20 µM
Compound: O=C(O)C=Cc1ccccc1C(F)(F)F [2-Trifluoromethylcinnamic acid]

Compound: C=CCC(C(N)=O)C(C)C (centres unmarked) [2-isopropyl-4-pentenamide]
partition ratio (P450): 200–300

Compound: O=C(O)C=Cc1ccc2c(c1)OCO2 [3,4-Methylenedioxycinnamic acid]
Ki (PHM [1]): 300 ± 40 µM

Inactivation of PHM (qualitative) (PHM [2]): inactivate PHM
kinact/KI (PHM [2]): 1 M⁻¹ s⁻¹
Ki (PHM [1]): 500 ± 60 µM
Compound: Nc1ccc(C=CC(=O)O)cc1 [4-Aminocinnamic acid]

Inactivation of PHM (qualitative) (PHM [2]): inactivate PHM
kinact/KI (PHM [2]): 0.5 M⁻¹ s⁻¹
Compound: CN(C)c1ccc(C=CC(=O)O)cc1 [N,N-Dimethyl-4-aminocinnamic acid]

Inactivation of PHM (qualitative) (PHM [2]): inactivate PHM
kinact/KI (PHM [2]): 333 M⁻¹ s⁻¹
(kinact/KI)obs relative to cinnamate (PHM [2]; ratio to the (kinact/KI)obs value for cinnamate): ~ 500 fold
Compound: CN(C)c1cccc2c(S(=O)(=O)Nc3ccc(C=CC(=O)O)cc3)cccc12 [N-Dansyl-4-aminocinnamic acid]

Compound: O=C(O)C/C=C/c1ccccc1 [PBA, trans-4-phenyl-3-butenoate]
Ki (PHM [3]): 50 µM

Compound: O=C(O)/C=C/C(=O)c1ccccc1 [benzoylacrylate, trans-benzoylacrylate]
Ki (PHM [3]): 200 µM

Compound: O=C(O)CNC(=O)C=Cc1ccccc1 [cinnamoylglycine, N-cinnamoylglycine]
Km (PHM [3]): 200 µM

Compound: O=C(O)CNC(=O)CCc1ccccc1 [hydrocinnamoylglycine, N-hydrocinnamoylglycine]
Km (PHM [3]): 900 µM

Protection of PHM from cinnamate-mediated inactivation (PHM [4]): did protect PHM from inactivation
Compound: CC(S)C(=O)NCC(=O)O (centres unmarked) [tiopronin]

Compound: phenyl(aminomethyl)ethane
partition ratio, kcat/kinact [5]: 900
